Test results as given in ChEMBL document CHEMBL5131518, “Discovery of 2-Phenylquinolines with Broad-Spectrum Anti-coronavirus Activity” (ACS Med Chem Lett, 2022).

Columns and labels:
in vitro [1] = conditions: monkey, Vero E6 cells
Description: Selectivity index, ratio of CC50 for cytotoxicity against African green monkey Vero E6 cells to EC50 for antiviral activity against SARS-CoV-2 infected in eGFP expressing African green monkey Vero E6 cells

in vitro [2] = conditions: human, HEL 299 cells
Description: Selectivity index, ratio of CC50 for cytotoxicity against HEL 299 cells to EC50 for antiviral activity against HCoV-229E infected in HEL 299 cells

[3] = Inhibition of SARS-CoV-2 RdRp expressed in Escherichia coli BL21 DE3 co-expressing […] incubated for 1 hr by fluorescent based assay; set-up: species or system Severe acute respiratory syndrome coronavirus 2
[4] = tested on: Severe acute respiratory syndrome coronavirus 2; assay: Inhibition of SARS-CoV-2 RdRp expressed in Escherichia coli BL21 DE3 co-expressing […] at 30 uM incubated for 1 hr by fluorescent bases assay
[5] = target: Replicase polyprotein 1ab (Severe acute respiratory syndrome coronavirus 2) (UniProt P0DTD1); assay: Inhibition of SARS-CoV-2 nsp13 ATPase-associated activity using ATP as substrate at highest concentration of compound incubated for 30 mins by Biomol Green Reagent based assay

Compound	selectivity ratio (in vitro [1])	selectivity ratio (in vitro [2])	IC50 [3]	inhibition [4]	inhibition [5]
CCCOc1ccc(-c2cc(OCCN(CC)CC)c3cccc(OC)c3n2)cc1	> 11	8.2			
CCCOc1ccc(-c2cc(OCCN3CCN(Cc4ccccc4)CC3)c3c(OC)cc(OC)cc3n2)cc1	> 12.7	16.4	> 30 µM	100%	
CCCOc1ccc(-c2cc(OCCN3CCCC3)c3cc(OC)cc(OC)c3n2)cc1	> 16.9	> 2.5	> 30 µM	100%	
CCCOc1ccc(-c2cc(OCCN(CC)CC)c3c(OC)c(OC)c(OC)cc3n2)cc1	2.9				
C=CCn1c(S)nnc1CSc1ccccc1[N+](=O)[O-]					90%
CCCOc1ccc(-c2cc(OCCN(CC)CC)c3cc(OC)c(OC)cc3n2)cc1	13.8	5.2			
CCCOc1ccc(-c2cc(OCCN3CCc4cc(OC)c(OC)cc4C3)c3c(OC)cc(OC)cc3n2)cc1			> 30 µM		
CCCOc1ccc(-c2cc(OCCN3CCCC3)c3c(OC)ccc(OC)c3n2)cc1	7.9	13.4			
CCCOc1ccc(-c2cc(OCCN3CCN(Cc4ccccc4)CC3)c3ccccc3n2)cc1	> 8.4	> 1.6			
CCCOc1ccc(-c2cc(OCCN3CCCCC3)c3c(OC)ccc(OC)c3n2)cc1	8.8	10.2	> 30 µM	100%	
CCCOc1ccc(-c2cc(OCCN3CCCCC3)c3cc(OC)c(OC)cc3n2)cc1	4.3	52.4			
CCCOc1ccc(-c2cc(OCCN3CCNCC3)c3cccc(OC)c3n2)cc1	4.3	25.6			
CCCOc1ccc(-c2cc(OCCN(CC)CC)c3c(OC)ccc(OC)c3n2)cc1	5.3	13.8			
CCCOc1ccc(-c2cc(OCCN3CCN(Cc4ccccc4)CC3)c3cccc(OC)c3n2)cc1	2.8				
CCCOc1ccc(-c2cc(OCCN3CCCC3)c3cc(OC)c(OC)cc3n2)cc1	1.3				
CCCOc1ccc(-c2cc(OCCN(CC)CC)c3cc(OC)cc(OC)c3n2)cc1	> 7.7	12.4			
